The values below come from ChEMBL document CHEMBL1143418, “Colistin methanesulfonate against multidrug-resistant Acinetobacter baumannii in an in vitro pharmacodynamic model” (2007).

For test [1], the system named is Acinetobacter baumannii. Put plainly: Antibacterial activity against multidrug-resistant Acinetobacter baumannii 06-74 isolate by CLSI microdilution test. In kind it is functional. For orientation: Dilution methods test growth across graded concentrations, often in twofold steps.
Test [2] relates to Acinetobacter baumannii. The test can be described thus: Antibacterial activity against multidrug-resistant Acinetobacter baumannii 06-74 isolate assessed as regrowth bacterial load at 50 ug/ml administered as continuous infusion in vitro pharmacodynamic model after 3 to 4 hrs by time kill experiment. In kind it is functional.
Test [3] has as its system Acinetobacter baumannii. The test can be described thus: Antibacterial activity against multidrug-resistant Acinetobacter baumannii 06-74 isolate assessed as reduction in bacterial load at 50 ug/ml administered as continuous infusion in vitro pharmacodynamic model after 3 to 4 hrs by time kill experiment. In kind it is functional.
Test [4] relates to Acinetobacter baumannii. Put plainly: Antibacterial activity against multidrug-resistant Acinetobacter baumannii 06-74 isolate by time kill experiment. In kind it is functional, organism-based.
Test [5] relates to Acinetobacter baumannii. Put plainly: Antibacterial activity against multidrug-resistant Acinetobacter baumannii 06-74 isolate assessed as prevention of bacterial regrowth at 6 ug/ml first dose and 24 ug/ml of second dose administered 12 hrs after first dose as bolus dose in in vitro pharmacodynamic model vessel measured 2 to 3 hrs after last dose by time kill experiment. In kind it is functional, organism-based.

The test system of test [6] is Acinetobacter baumannii. Put plainly: Antibacterial activity against multidrug-resistant Acinetobacter baumannii 06-74 isolate assessed as regrowth bacterial load at 12 ug/ml administered as bolus dose after 24 hrs by time kill experiment. The class given is functional, organism-based.
For test [7], the system named is Acinetobacter baumannii. Put plainly: Antibacterial activity against multidrug-resistant Acinetobacter baumannii 06-74 isolate assessed as prevention of bacterial regrowth at 12 ug/ml first dose and 24 ug/ml of second dose administered 12 hrs after first dose as bolus dose in in vitro pharmacodynamic model vessel measured 2 to 3 hrs after last dose by time kill experiment. In kind it is functional, organism-based.

For test [8], the system named is Acinetobacter baumannii. The test can be described thus: Antibacterial activity against multidrug-resistant Acinetobacter baumannii 06-74 isolate assessed as regrowth bacterial load at 24 ug/ml administered as bolus dose after 24 hrs by time kill experiment. The class given is functional, organism-based.
Test [9] deals with Acinetobacter baumannii. Put plainly: Antibacterial activity against 6 ug/mL Colistin methanesulfonate exposed multidrug-resistant Acinetobacter baumannii 06-74 isolate by CLSI microdilution test. The class given is functional, organism-based.
Test [10] has as its system Acinetobacter baumannii. Put plainly: Antibacterial activity against multidrug-resistant Acinetobacter baumannii 06-74 isolate assessed as regrowth bacterial load at 6 ug/ml administered as bolus dose after 24 hrs by time kill experiment. The class given is functional, organism-based.
Test [11] relates to Acinetobacter baumannii. The test can be described thus: Antibacterial activity against 3 ug/mL Colistin methanesulfonate exposed multidrug-resistant Acinetobacter baumannii 06-74 isolate by CLSI microdilution test. In kind it is functional, organism-based.
Test [12] has as its system Acinetobacter baumannii. The test can be described thus: Antibacterial activity against multidrug-resistant Acinetobacter baumannii 06-74 isolate assessed as reduction in bacterial load at 24 ug/ml administered as bolus dose after 2 to 3 hrs by time kill experiment. The class given is functional, organism-based.
The test system of test [13] is Acinetobacter baumannii. The test can be described thus: Antibacterial activity against multidrug-resistant Acinetobacter baumannii 06-74 isolate assessed as reduction in bacterial load at 6 ug/ml first dose and 24 ug/ml of second dose administered 12 hrs after first dose as bolus dose in in vitro pharmacodynamic model vessel measured 2 to 3 hrs after last dose by time kill experiment. The class given is functional, organism-based.

The subject of test [14] is Acinetobacter baumannii. The test can be described thus: Antibacterial activity against 24 ug/mL Colistin methanesulfonate exposed multidrug-resistant Acinetobacter baumannii 06-74 isolate by CLSI microdilution test. In kind it is functional, organism-based.
The test system of test [15] is Acinetobacter baumannii. The test can be described thus: Antibacterial activity against multidrug-resistant Acinetobacter baumannii 06-74 isolate assessed as reduction in bacterial load at 3 ug/ml first dose and 24 ug/ml of second dose administered 12 hrs after first dose as bolus dose in in vitro pharmacodynamic model vessel measured 2 to 3 hrs after last dose by time kill experiment. In kind it is functional, organism-based.

Test [16] has as its system Acinetobacter baumannii. The test can be described thus: Antibacterial activity against multidrug-resistant Acinetobacter baumannii 06-74 isolate assessed as reduction in bacterial load at 12 ug/ml administered as bolus dose after 2 to 3 hrs by time kill experiment. In kind it is functional, organism-based.
In test [17] the test system is Acinetobacter baumannii. Put plainly: Antibacterial activity against multidrug-resistant Acinetobacter baumannii 06-74 isolate assessed as reduction in bacterial load at 12 ug/ml first dose and 24 ug/ml of second dose administered 12 hrs after first dose as bolus dose in in vitro pharmacodynamic model vessel measured 2 to 3 hrs after last dose by time kill experiment. In kind it is functional, organism-based.

Test [18] has as its system Acinetobacter baumannii. Put plainly: Antibacterial activity against 24 ug/mL bolus dose Colistin methanesulfonate exposed multidrug-resistant Acinetobacter baumannii 06-74 isolate by CLSI microdilution test. The class given is functional, organism-based.
For test [19], the system named is Acinetobacter baumannii. Put plainly: Antibacterial activity against multidrug-resistant Acinetobacter baumannii 06-74 isolate assessed as reduction in bacterial load at 6 ug/ml administered as bolus dose after 2 to 3 hrs by time kill experiment. In kind it is functional, organism-based.
For test [20], the system named is Acinetobacter baumannii. The test can be described thus: Antibacterial activity against multidrug-resistant Acinetobacter baumannii 06-74 isolate assessed as reduction in bacterial load at 3 ug/ml administered as bolus dose after 2 to 3 hrs by time kill experiment. The class given is functional, organism-based.
The test system of test [21] is Acinetobacter baumannii. Put plainly: Antibacterial activity against multidrug-resistant Acinetobacter baumannii 06-74 isolate assessed as regrowth bacterial load at 3 ug/ml administered as bolus dose after 24 hrs by time kill experiment. In kind it is functional, organism-based.
The subject of test [22] is Acinetobacter baumannii. Put plainly: Antibacterial activity against multidrug-resistant Acinetobacter baumannii 06-74 isolate assessed as reduction in bacterial load at 24 ug/ml first dose and 24 ug/ml of second dose administered 12 hrs after first dose as bolus dose in in vitro pharmacodynamic model vessel measured 2 to 3 hrs after last dose by time kill experiment. In kind it is functional, organism-based.

In test [23] the test system is Acinetobacter baumannii. The test can be described thus: Antibacterial activity against 12 ug/mL Colistin methanesulfonate exposed multidrug-resistant Acinetobacter baumannii 06-74 isolate by CLSI microdilution test. The class given is functional, organism-based.
Test [24] deals with Acinetobacter baumannii. The test can be described thus: Antibacterial activity against multidrug-resistant Acinetobacter baumannii 06-74 isolate assessed as prevention of bacterial regrowth at 24 ug/ml first dose and 24 ug/ml of second dose administered 12 hrs after first dose as bolus dose in in vitro pharmacodynamic model vessel measured 2 to 3 hrs after last dose by time kill experiment. The class given is functional, organism-based.

In test [25] the test system is Acinetobacter baumannii. The test can be described thus: Antibacterial activity against multidrug-resistant Acinetobacter baumannii 06-74 isolate assessed as prevention of bacterial regrowth at 3 ug/ml first dose and 24 ug/ml of second dose administered 12 hrs after first dose as bolus dose in in vitro pharmacodynamic model vessel measured 2 to 3 hrs after last dose by time kill experiment. The class given is functional, organism-based.

Converted amounts (≈) assume the structure as drawn. The source made the active and inactive calls. The rule behind the calls is not given here.

For `NCC[C@H](O)C(=O)N[C@@H]1C[C@H](N)[C@@H](O[C@H]2O[C@H](CN)[C@@H](O)[C@H](O)[C@H]2O)[C@H](O)[C@H]1O[C@H]1O[C@H](CO)[C@@H](O)[C@H](N)[C@H]1O` [AMIKACIN], the MIC – broadly, the lowest concentration found to suppress growth – against Acinetobacter baumannii [1] is ≤ 2 µg/mL.
For the molecule `CC1(C)S[C@@H]2[C@H](NC(=O)[C@H](N)c3ccccc3)C(=O)N2[C@H]1C(=O)O` [AMPICILLIN], the MIC against Acinetobacter baumannii [1] was ≥ 32 µg/mL.
As for `CC(C)(O/N=C(\C(=O)N[C@@H]1C(=O)N2C(C(=O)[O-])=C(C[n+]3ccccc3)CS[C@H]12)c1csc(N)n1)C(=O)O` [CEFTAZIDIME], the log10CFU/ml with Acinetobacter baumannii [2] is recorded as 6.5; in the test with Acinetobacter baumannii [3], 3. Moreover, the MIC in the test on Acinetobacter baumannii [1] was ≥ 64 µg/mL.
On to `C[C@@H](O)[C@H]1C(=O)N2C(C(=O)O)=C(SCCNC=N)C[C@H]12` [IMIPENEM ANHYDROUS], for which the MIC against Acinetobacter baumannii [1] was ≤ 1 µg/mL.
On the same count and under the same terms, in the case of `C[C@H]1COc2c(N3CCN(C)CC3)c(F)cc3c(=O)c(C(=O)O)cn1c23.C[C@H]1COc2c(N3CCN(C)CC3)c(F)cc3c(=O)c(C(=O)O)cn1c23.O` [LEVOFLOXACIN] it was ≥ 8 µg/mL; in that of `C[C@@H](O)[C@H]1C(=O)N2C(C(=O)O)=C(S[C@@H]3CN[C@H](C(=O)N(C)C)C3)[C@H](C)[C@H]12` [MEROPENEM], 1 µg/mL (≈ 2.61 µM); in that of `O=C1CN(/N=C/c2ccc([N+](=O)[O-])o2)C(=O)N1` [NITROFURANTOIN], ≥ 512 µg/mL.
Consider COLISTIMETHATE SODIUM, for which the MIC was > 2050 µg/mL in the test on Acinetobacter baumannii [4] and 2 µg/mL against Acinetobacter baumannii [1].
As to COLISTIN, the result with Acinetobacter baumannii [5], in the test on Acinetobacter baumannii [7], in the test on Acinetobacter baumannii [2], in the test on Acinetobacter baumannii [13], in the test on Acinetobacter baumannii [15] and with Acinetobacter baumannii [17] was inactive. The result in the test on Acinetobacter baumannii [22], in the test on Acinetobacter baumannii [24], in the test with Acinetobacter baumannii [25] and in the test with Acinetobacter baumannii [3] was inactive. The log10CFU/ml stood at 7 with Acinetobacter baumannii [6]; 7 in the test on Acinetobacter baumannii [8]; 7 in the test with Acinetobacter baumannii [10]; 3 with Acinetobacter baumannii [12]; 3 in the test with Acinetobacter baumannii [16]; 3 in the test with Acinetobacter baumannii [19]. For the same molecule, the log10CFU/ml is 3 with Acinetobacter baumannii [20] and 7 in the test on Acinetobacter baumannii [21]. The minimum inhibitory concentration (MIC) is > 64 µg/mL with Acinetobacter baumannii [9]; 64 µg/mL in the test with Acinetobacter baumannii [11]; > 32 µg/mL in the test on Acinetobacter baumannii [14]; > 128 µg/mL against Acinetobacter baumannii [18]; 128 µg/mL in the test with Acinetobacter baumannii [23].
Turning to GENTAMICIN, the MIC in the test on Acinetobacter baumannii [1] is > 16 µg/mL.
